ChEMBL document CHEMBL1201862, “PubChem BioAssay data set” (2004)
Calls of active or inactive are those of the source.

Assays:
[1] = target: T1, Replicative DNA helicase DnaB (Mycobacterium tuberculosis, UniProt P9WMR3); assay: DnaB intein splicing inhibitors, dose response, biochemical, cell-free fluorescence (AID 449749); type: functional
T1 sequence (P9WMR3 whole entry): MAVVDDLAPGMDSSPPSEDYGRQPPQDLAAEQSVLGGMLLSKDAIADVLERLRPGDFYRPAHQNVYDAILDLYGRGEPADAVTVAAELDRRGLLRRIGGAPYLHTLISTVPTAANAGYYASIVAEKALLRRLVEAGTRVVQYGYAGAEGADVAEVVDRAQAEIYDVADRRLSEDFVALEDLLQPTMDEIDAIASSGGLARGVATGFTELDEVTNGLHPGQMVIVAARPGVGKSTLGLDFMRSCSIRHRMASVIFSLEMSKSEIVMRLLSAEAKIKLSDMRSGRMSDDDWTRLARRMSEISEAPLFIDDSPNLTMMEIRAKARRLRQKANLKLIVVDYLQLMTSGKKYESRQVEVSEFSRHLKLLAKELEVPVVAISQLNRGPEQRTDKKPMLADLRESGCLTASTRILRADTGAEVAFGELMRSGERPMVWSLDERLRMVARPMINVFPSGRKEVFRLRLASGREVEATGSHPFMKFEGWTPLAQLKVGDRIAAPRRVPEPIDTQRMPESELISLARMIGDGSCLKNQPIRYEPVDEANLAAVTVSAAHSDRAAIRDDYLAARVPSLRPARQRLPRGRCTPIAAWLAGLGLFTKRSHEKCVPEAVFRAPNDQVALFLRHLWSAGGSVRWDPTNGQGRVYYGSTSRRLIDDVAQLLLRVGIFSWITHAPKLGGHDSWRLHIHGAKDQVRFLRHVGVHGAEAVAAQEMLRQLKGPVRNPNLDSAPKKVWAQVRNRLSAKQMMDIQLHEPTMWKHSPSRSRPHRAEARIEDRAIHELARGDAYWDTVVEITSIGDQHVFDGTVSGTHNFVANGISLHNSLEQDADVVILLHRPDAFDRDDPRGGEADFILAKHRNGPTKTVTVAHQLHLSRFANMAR

Protein RecA = target: T2, Protein RecA (Mycobacterium tuberculosis, UniProt P9WHJ3); assay: Fluorescence Cell-Free Homogeneous Dose Retest to Identify Inhibitors of RecA-Intein Splicing Activity. [Related pubchem assays (depositor defined):AID2097, AID2223, AID489010, AID492950]; type: functional
T2 sequence (P9WHJ3 whole entry): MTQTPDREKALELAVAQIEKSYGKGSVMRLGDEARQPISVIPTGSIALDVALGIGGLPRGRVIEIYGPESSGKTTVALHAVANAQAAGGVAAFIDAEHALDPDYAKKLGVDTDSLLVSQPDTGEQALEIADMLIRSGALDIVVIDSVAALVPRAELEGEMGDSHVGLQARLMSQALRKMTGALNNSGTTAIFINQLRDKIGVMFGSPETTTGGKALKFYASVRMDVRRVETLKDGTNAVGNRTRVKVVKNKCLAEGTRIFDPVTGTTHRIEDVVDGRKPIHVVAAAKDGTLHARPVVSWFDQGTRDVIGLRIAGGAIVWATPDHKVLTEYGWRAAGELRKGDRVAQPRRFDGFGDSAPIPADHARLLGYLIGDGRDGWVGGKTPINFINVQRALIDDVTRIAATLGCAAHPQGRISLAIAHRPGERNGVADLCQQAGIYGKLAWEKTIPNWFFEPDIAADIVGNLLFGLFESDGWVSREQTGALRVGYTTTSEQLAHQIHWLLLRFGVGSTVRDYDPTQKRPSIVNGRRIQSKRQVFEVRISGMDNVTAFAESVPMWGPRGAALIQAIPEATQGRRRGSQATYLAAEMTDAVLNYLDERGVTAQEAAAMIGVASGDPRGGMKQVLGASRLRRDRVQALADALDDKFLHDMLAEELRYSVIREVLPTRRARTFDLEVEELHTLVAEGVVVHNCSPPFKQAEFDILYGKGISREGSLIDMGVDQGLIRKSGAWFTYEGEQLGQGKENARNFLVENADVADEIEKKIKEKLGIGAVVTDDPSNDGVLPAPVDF

Streptococcus = assay: GAS UMAA2166 growth inhibition – luminescence, BacTiterGlo, counter-screen for streptokinase expression inhibitor project, dose response (AID 1915); type: functional, organism-based;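 further: potency for reduction of bacterial viability or growth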
[2] = tested on: Streptococcus sp. 'group A'; assay: Streptococcus pyogenes SK(-)GAS viability under kanamycin – luminescence, BacTiterGlo, confirmation, counter-screen for streptokinase expression inhibitor project, dose response (AID 1900); type: functional, organism-based
[3] = Luminescence Cell-Based Dose Retest to Confirm Inhibitors of Cancer Stem Cells. [Related pubchem assays (depositor defined):AID2717, AID2721]; type: functional; settings: Homo sapiens
[4] = target: T3, Heat shock factor protein 1 (Mus musculus, UniProt P38532); assay: decrease of HSF1-responsive luciferase luminescence – cell-based, NIH3T3, dose retest, confirmation (AID 2382); type: functional;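 further: NIH3T3 fibroblasts with HSF1-driven luciferase reporter stressed by proteasome inhibitor MG132; luminescence from HSF1-driven luciferase expression after 8 hours of MG132 stress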
T3 sequence (P38532 whole entry): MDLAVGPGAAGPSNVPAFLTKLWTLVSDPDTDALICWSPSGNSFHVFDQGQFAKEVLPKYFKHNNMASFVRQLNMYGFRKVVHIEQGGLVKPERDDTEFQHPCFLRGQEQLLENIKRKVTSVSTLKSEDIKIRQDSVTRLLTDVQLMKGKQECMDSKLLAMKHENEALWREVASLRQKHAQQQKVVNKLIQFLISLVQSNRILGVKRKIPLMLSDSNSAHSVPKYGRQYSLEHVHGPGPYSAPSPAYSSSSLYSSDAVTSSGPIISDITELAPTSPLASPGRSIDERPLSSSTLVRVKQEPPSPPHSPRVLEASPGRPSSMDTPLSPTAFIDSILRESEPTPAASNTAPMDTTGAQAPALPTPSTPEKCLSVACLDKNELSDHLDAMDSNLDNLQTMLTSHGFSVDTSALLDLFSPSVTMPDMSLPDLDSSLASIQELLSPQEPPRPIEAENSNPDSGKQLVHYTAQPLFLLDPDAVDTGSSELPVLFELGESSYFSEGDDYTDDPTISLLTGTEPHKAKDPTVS

[5] = target: T4, Corticotropin-releasing factor receptor 2/Corticotropin-releasing factor-binding protein (Homo sapiens, UniProt P24387+Q13324); assay: activators of CRF receptor 2 with binding protein – uHTS hits, confirmation (AID 602473); type: functional; settings: read-out: EC50_Mean
T4 sequence (Q13324 whole entry): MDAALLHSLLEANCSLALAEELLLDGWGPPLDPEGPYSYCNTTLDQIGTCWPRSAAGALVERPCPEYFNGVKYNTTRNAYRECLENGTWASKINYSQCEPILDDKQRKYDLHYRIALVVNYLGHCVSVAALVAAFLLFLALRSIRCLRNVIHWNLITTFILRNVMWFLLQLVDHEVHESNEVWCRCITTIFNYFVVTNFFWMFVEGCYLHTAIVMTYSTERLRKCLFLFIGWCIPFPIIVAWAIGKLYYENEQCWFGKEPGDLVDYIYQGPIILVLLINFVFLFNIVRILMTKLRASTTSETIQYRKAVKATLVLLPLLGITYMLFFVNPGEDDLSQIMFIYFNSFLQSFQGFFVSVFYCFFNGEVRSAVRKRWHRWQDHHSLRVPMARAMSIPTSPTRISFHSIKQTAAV
T4 sequence (P24387 whole entry): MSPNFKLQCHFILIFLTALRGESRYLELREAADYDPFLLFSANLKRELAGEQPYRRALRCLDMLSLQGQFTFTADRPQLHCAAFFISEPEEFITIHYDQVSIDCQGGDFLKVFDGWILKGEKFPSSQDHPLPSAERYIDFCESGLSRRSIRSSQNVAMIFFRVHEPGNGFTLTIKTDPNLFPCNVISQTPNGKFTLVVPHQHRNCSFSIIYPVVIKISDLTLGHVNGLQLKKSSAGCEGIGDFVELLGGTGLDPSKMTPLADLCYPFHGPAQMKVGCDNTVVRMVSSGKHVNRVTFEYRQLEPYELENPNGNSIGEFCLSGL

Cytochrome P450 3A4 = Cytochrome P450 3A4 (Homo sapiens, UniProt P08684);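 further: CYP3A4 tested as one member of a cytochrome P450 panel screen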
Chain of Cytochrome P450 3A4 (P08684 whole entry): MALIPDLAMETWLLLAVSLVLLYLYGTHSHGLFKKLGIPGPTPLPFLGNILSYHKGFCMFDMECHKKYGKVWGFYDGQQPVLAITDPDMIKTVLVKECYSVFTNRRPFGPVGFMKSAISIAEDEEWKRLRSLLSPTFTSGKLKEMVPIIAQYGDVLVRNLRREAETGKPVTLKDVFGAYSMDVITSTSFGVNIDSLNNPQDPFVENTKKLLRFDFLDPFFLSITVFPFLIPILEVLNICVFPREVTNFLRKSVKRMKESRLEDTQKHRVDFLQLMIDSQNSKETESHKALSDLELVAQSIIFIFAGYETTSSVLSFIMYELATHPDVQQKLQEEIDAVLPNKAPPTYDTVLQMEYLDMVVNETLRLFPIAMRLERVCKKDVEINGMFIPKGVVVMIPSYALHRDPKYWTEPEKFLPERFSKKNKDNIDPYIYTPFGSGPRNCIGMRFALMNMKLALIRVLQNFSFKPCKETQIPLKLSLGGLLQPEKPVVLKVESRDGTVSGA

Cytochrome P450 2C19 = Cytochrome P450 2C19 (Homo sapiens, UniProt P33261); assay: Cytochrome panel assay with activity outcomes. Panel member name: p450-cyp2c19 Compounds with AC50 equal or less than 10 uM are considered active; type: functional; settings: read-out: AC50
Chain of Cytochrome P450 2C19 (P33261 whole entry): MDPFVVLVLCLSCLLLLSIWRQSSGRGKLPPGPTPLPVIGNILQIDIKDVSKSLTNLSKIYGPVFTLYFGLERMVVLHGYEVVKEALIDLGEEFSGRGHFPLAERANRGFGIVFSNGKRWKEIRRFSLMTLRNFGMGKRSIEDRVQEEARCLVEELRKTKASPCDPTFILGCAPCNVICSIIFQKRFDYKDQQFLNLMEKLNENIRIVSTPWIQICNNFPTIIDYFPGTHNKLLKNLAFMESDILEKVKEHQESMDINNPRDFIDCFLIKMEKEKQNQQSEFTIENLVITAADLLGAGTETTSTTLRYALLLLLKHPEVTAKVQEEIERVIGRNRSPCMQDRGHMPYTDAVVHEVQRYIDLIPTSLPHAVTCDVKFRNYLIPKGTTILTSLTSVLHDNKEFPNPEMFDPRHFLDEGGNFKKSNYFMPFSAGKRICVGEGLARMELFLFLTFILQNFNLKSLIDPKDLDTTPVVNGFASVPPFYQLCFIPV

[6] = NIH3T3 cell viability loss – ATP luminescence, mouse fibroblasts, counter-screen, dose response (AID 2010); type: functional, cell-based;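 further: cells exposed to compound for about 90 hours before reading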
[7] = Trypanosoma cruzi growth suppression in host cells – NIH3T3 host cells, beta-gal luminescence, confirmation (AID 2044); type: functional, cell-based;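 further: intracellular parasites grown in NIH/3T3 mouse fibroblasts as host cells; luminescent beta-galactosidase reporter signal from transgenic T. cruzi replicating inside host cells; inhibitors lower the luminescence signal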
Cytochrome P450 2D6 = Cytochrome P450 2D6 (Homo sapiens, UniProt P10635);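 further: CYP2D6 member of a cytochrome P450 panel assay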
Chain of Cytochrome P450 2D6 (P10635 whole entry): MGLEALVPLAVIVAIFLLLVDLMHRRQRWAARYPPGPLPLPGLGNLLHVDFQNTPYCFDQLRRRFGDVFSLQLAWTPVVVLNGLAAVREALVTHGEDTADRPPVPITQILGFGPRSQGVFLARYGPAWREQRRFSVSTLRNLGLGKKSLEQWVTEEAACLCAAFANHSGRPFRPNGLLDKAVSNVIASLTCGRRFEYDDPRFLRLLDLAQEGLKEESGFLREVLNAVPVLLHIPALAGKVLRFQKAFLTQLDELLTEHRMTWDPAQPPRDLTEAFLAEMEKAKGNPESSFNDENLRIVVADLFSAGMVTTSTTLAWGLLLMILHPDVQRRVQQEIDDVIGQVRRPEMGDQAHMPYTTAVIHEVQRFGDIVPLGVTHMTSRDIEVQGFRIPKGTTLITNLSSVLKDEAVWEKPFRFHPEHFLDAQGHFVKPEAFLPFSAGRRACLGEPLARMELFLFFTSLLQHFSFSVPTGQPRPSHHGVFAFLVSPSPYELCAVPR

CCCCOc1ccc(C2C3CN(C(=O)OCC)CC=C3C(C#N)=C(N)C2(C#N)C#N)cc1OC (stereo not given)
AC50 [1]: > 380 µM (inactive)
EC50 (Protein RecA): 29.8 µM (active)

CCCC1CC(C(=O)NC(C(C)Cl)C2OC(SC)C(O)C(O)C2O)N(C)C1 (stereo not given)
EC50 (Streptococcus): < 0.06 µM (active)
EC50 [2]: < 0.06 µM (active)

CC(C)(C)c1ccc(C(=O)NC(=S)Nc2nc3c(s2)CCCC3)cc1
AC50 [3]: 2.02 µM (active)
EC50 [4]: 0.192 µM (active)

CC1(c2ccc(OC(F)F)cc2)NC(=O)N(CC(=O)Nc2cccc(F)c2)C1=O (stereo not given)
EC50 [5]: 4.52 µM (active)

O=[N+]([O-])c1cc(Cl)cc2c1nc(NCCO)c1ccccc12
AC50 (Cytochrome P450 3A4): 3.16 µM (inconclusive)

CCOC(=O)Cn1cc(/C=N/NC(=O)CC#N)c2ccccc21
AC50 [1]: 61.1 µM (active)
EC50 (Protein RecA): 6.38 µM (active)

FC(F)Oc1ccc(-c2csc(NNC3=NCCCCC3)n2)cc1
AC50 [3]: 1.77 µM (active)

Cc1nc2cnc(OCc3ccccc3)nc2n(CCc2ccccc2)c1=O
AC50 (Cytochrome P450 3A4): 25.1 µM (inconclusive)

COc1cccc(-c2cc3nc(-c4ccccc4)cc(N4CCC5(CC4)OCCO5)n3n2)c1
AC50 (Cytochrome P450 2C19): 2 µM (inconclusive)
EC50 [6]: > 30 µM (not active)
AC50 (Cytochrome P450 3A4): 20 µM (inconclusive)
EC50 [7]: 1.82 µM (active)

Cn1cc(-c2nc3cncnc3n(C3CC3)c2=O)c2ccccc21
AC50 (Cytochrome P450 3A4): 7.94 µM (inconclusive)

COC(=O)Cc1n[nH]c2c1C(c1c[nH]c3ccccc13)C(C#N)=C(N)O2 (stereo not given)
AC50 [1]: > 380 µM (inactive)
EC50 (Protein RecA): > 380 µM (inconclusive)

O=C1CC/[N+](=C\c2ccccc2)[N-]1
AC50 [1]: 19.4 µM (active)
EC50 (Protein RecA): 4.58 µM (active)

Cc1[nH]c2ccc(F)cc2c1CCN(Cc1cccnc1)C(S)=Nc1ccc(F)cc1
AC50 [1]: 17.2 µM (active)
EC50 [6]: > 30 µM (not active)
EC50 (Protein RecA): 93.4 µM (active)
EC50 [7]: 0.705 µM (active)

C/C=C(/C)C(=O)OC1CC(C)(C)C[C@H]2C3=CC[C@@H]4[C@@]5(C)CCC(O[C@@H]6O[C@@H](C(=O)O)[C@@H](O)C(O[C@@H]7OC[C@H](O)[C@@H](O)[C@@H]7O[C@@H]7OC(CO)C(O)[C@@H](O)[C@@H]7O)C6O[C@@H]6OC(CO)C(O)C(O)C6O)[C@@](C)(CO)[C@@H]5CC[C@]4(C)[C@]3(C)CC(O)[C@@]12CO (stereo not given in full)
EC50 [5]: 5.49 µM (active)

Fc1cccc(C2NC(S)=NC3=C2N2CCC3CC2)c1 (stereo not given)
AC50 (Cytochrome P450 3A4): 25.1 µM (inconclusive)
AC50 (Cytochrome P450 2D6): 3.16 µM (inconclusive)

Cc1ccc(NC(=O)C2C3CCCC2C3c2ccccc2)cc1C (stereo not given)
AC50 (Cytochrome P450 3A4): 8.91 µM (inconclusive)

CC(C)CN1CCCC2(CCN(C(=O)Oc3ccccc3)CC2)C1
AC50 (Cytochrome P450 3A4): 25.1 µM (inconclusive)
AC50 (Cytochrome P450 2D6): 20 µM (inconclusive)

O=c1[nH]cc(NCCc2ccccc2)c(=O)[nH]1
AC50 [1]: > 380 µM (inconclusive)
EC50 (Protein RecA): 10.1 µM (active)

COc1ccc(NC(=O)c2ccc(COc3ccccc3Br)o2)cc1OC
AC50 [3]: 1.69 µM (active)

CCNc1ncc2nc(-c3cn(C)c4ccccc34)c(=O)n(CCC#N)c2n1
AC50 (Cytochrome P450 3A4): 12.6 µM (inconclusive)

CCn1c(=O)c(C(=O)NCCc2ccccc2)c(O)c2ccccc21
AC50 [3]: 6.91 µM (active)

COC(=O)c1c(-c2ccc(OC)cc2)oc2ccc(-c3cc(OC)c(OC)c(OC)c3)cc12
AC50 [3]: 5.85 µM (active)

Cc1ccccc1CS(=O)(=O)c1snnc1C
AC50 [1]: > 380 µM (inactive)
EC50 (Protein RecA): > 380 µM (inactive)

CC(=O)OCC1=C(C(=O)O)N2C(=O)C(NC(=O)C(C)Cn3cc(Cl)cn3)C2SC1 (stereo not given)
EC50 (Streptococcus): 1.27 µM (active)
EC50 [2]: 1.39 µM (active)

COc1ccc(NC(=S)N(CCc2nc3cc(C)c(C)cc3[nH]2)Cc2cccnc2)cc1
AC50 (Cytochrome P450 3A4): 0.891 µM (inconclusive)

O=C1c2cc(Br)ccc2N(Cc2ccc(Br)cc2)S(=O)(=O)C1c1cc(Cl)c(Cl)cc1[N+](=O)[O-] (stereo not given)
AC50 [3]: 1.06 µM (active)

O=S(=O)(NC1CC(NS(=O)(=O)OCC(Cl)(Cl)Cl)C2CCCCC12)OCC(Cl)(Cl)Cl (stereo not given)
AC50 [3]: 1.31 µM (active)

Cc1cccc(C(=O)OCC(=O)Nc2nnc(-c3ccccc3)o2)c1O
EC50 (Streptococcus): 4.74 µM (active)
EC50 [2]: 3.11 µM (active)

CCOC(=O)c1nnn(-c2nonc2-n2cccc2)c1CCl
AC50 [1]: 5.35 µM (active)
EC50 (Protein RecA): 1.42 µM (active)

COc1ccccc1Nc1nc(-c2sc(NC(=O)c3ccccc3)nc2C)cs1
AC50 (Cytochrome P450 2C19): 3.16 µM (inconclusive)
AC50 (Cytochrome P450 3A4): 15.8 µM (inconclusive)
